PubChem BioAssay (NCI)
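Assay format: 96-well plates, 48-hour exposure. GI50: concentration for 50% inhibition of growth. At the TGI there is no net growth.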

Legend:
Assay in all cases: inhibition of tumour cell growth, NCI panel, 48 h
[1] = test system: 786-0 renal
[2] = test system: A498 renal
[3] = test system: A549 NSCLC
[4] = test system: ACHN renal
[5] = test system: BT-549 breast
[6] = test system: CAKI-1 renal
[7] = test system: CCRF-CEM leukemia
[8] = test system: COLO 205 colon
[9] = test system: DU-145 prostate
[10] = test system: EKVX NSCLC
[11] = test system: HCC-2998 colon
[12] = test system: HCT-116 colon
[13] = test system: HCT-15 colon
[14] = test system: HL-60(TB) leukemia
[15] = test system: HOP-62 NSCLC
[16] = test system: HOP-92 NSCLC
[17] = test system: HS 578T breast
[18] = test system: HT29 colon
[19] = test system: IGROV1 ovarian
[20] = test system: K-562 leukemia
[21] = test system: KM12 colon
[22] = test system: LOX IMVI melanoma
[23] = test system: M14 melanoma
[24] = test system: MALME-3M melanoma
[25] = test system: MCF7 breast
[26] = test system: MDA-MB-231 breast
[27] = test system: MDA-MB-435
[28] = test system: MOLT-4 leukemia
[29] = test system: NCI-H226 lung
[30] = test system: NCI-H23 lung
[31] = test system: NCI-H460 lung
[32] = test system: NCI-H522 lung
[33] = test system: NCI/ADR-RES ovarian
[34] = test system: OVCAR-3 ovarian
[35] = test system: OVCAR-4 ovarian
[36] = test system: OVCAR-5 ovarian
[37] = test system: OVCAR-8 ovarian
[38] = test system: PC-3 prostate
[39] = test system: RPMI-8226 leukemia
[40] = test system: RXF 393 renal
[41] = test system: SF-268 CNS
[42] = test system: SF-295 CNS
[43] = test system: SF-539 CNS
[44] = test system: SK-MEL-2 melanoma
[45] = test system: SK-MEL-28 melanoma
[46] = test system: SK-MEL-5 melanoma
[47] = test system: SK-OV-3 ovarian
[48] = test system: SN12C renal
[49] = test system: SNB-19 CNS
[50] = test system: SNB-75 CNS
[51] = test system: SR leukemia
[52] = test system: SW-620 colon
[53] = test system: T-47D breast
[54] = test system: TK-10 renal
[55] = test system: U251 CNS
[56] = test system: UACC-257 melanoma
[57] = test system: UACC-62 melanoma
[58] = test system: UO-31 renal

## CC(C)C[C@H](NC(=O)[C@H](CCc1ccccc1)NC(=O)CN1CCOCC1)C(=O)N[C@@H](Cc1ccccc1)C(=O)N[C@@H](CC(C)C)C(=O)[C@@]1(C)CO1
[1]
  GI50: 31.1 nM
  TGI: 332 nM
[2]
  GI50: 22.7 nM
  TGI: 98.7 nM
[3]
  GI50: 20.3 nM
  TGI: 204 nM
[4]
  GI50: 36.6 nM
  TGI: 2660 nM
[5]
  GI50: < 10 nM
  TGI: 24.2 nM
[6]
  GI50: 109 nM
  TGI: 781 nM
[7]
  GI50: < 10 nM
  TGI: > 100000 nM
[8]
  GI50: < 16.5 nM
  TGI: 172 nM
[9]
  GI50: 18.3 nM
  TGI: 1370 nM
[10]
  GI50: 56.6 nM
[11]
  GI50: < 11.8 nM
  TGI: 22.7 nM
[12]
  GI50: < 10 nM
  TGI: < 12.5 nM
[13]
  GI50: 83 nM
  TGI: 1600 nM
[14]
  GI50: 26.8 nM
  TGI: 93 nM
[15]
  GI50: < 13.9 nM
  TGI: < 22.9 nM
[16]
  GI50: 23.6 nM
  TGI: 81.2 nM
[17]
  GI50: 22.4 nM
  TGI: 3340 nM
[18]
  GI50: < 10 nM
  TGI: 47.1 nM
[19]
  GI50: 32.4 nM
[20]
  GI50: 25.2 nM
  TGI: > 100000 nM
[21]
  GI50: < 10 nM
  TGI: 19.9 nM
[22]
  GI50: < 10 nM
  TGI: 13.5 nM
[23]
  GI50: < 13.1 nM
  TGI: 44.6 nM
[24]
  GI50: 52.7 nM
  TGI: 586 nM
[25]
  GI50: < 10 nM
  TGI: 5410 nM
[26]
  GI50: < 12.8 nM
  TGI: 63.5 nM
[27]
  GI50: < 10 nM
  TGI: 17.3 nM
[28]
  GI50: < 10 nM
  TGI: > 100000 nM
[29]
  GI50: < 12.2 nM
  TGI: < 17.5 nM
[30]
  GI50: < 15 nM
  TGI: 115 nM
[31]
  GI50: 23.5 nM
  TGI: 153 nM
[32]
  GI50: < 10 nM
  TGI: 23.9 nM
[33]
  GI50: 636 nM
  TGI: > 100000 nM
[34]
  GI50: < 10 nM
  TGI: 17.2 nM
[35]
  GI50: < 11.7 nM
[36]
  GI50: 25.5 nM
  TGI: 112 nM
[37]
  GI50: 20.4 nM
  TGI: 95.2 nM
[38]
  GI50: 24.7 nM
  TGI: 305 nM
[39]
  GI50: < 10 nM
[40]
  GI50: < 14 nM
  TGI: 24.6 nM
[41]
  GI50: < 10 nM
  TGI: 252 nM
[42]
  GI50: < 10 nM
  TGI: 56.1 nM
[43]
  GI50: < 13.3 nM
  TGI: 36.7 nM
[44]
  GI50: 14.4 nM
  TGI: 54.3 nM
[45]
  GI50: 47.5 nM
  TGI: 1570 nM
[46]
  GI50: < 13.6 nM
  TGI: 43.4 nM
[47]
  GI50: 25.3 nM
  TGI: 282 nM
[48]
  GI50: < 13.2 nM
  TGI: 34.9 nM
[49]
  GI50: < 16.4 nM
  TGI: > 100000 nM
[50]
  GI50: 18 nM
  TGI: 50.9 nM
[51]
  GI50: 14.9 nM
  TGI: > 100000 nM
[52]
  GI50: < 10 nM
[53]
  GI50: < 12.8 nM
  TGI: 28 nM
[54]
  GI50: 14.4 nM
  TGI: 93.4 nM
[55]
  GI50: < 12.7 nM
  TGI: 63.2 nM
[56]
  GI50: 54.7 nM
  TGI: 287 nM
[57]
  GI50: 33 nM
  TGI: 114 nM
[58]
  GI50: 116 nM
  TGI: 575 nM

## COc1cc(-c2cc(-c3ccc(N(C)C)cc3)nc(N3CCOCC3)c2C#N)cc(OC)c1OC
[1]
  GI50: 835 nM
  TGI: 13400 nM
[2]
  GI50: 768 nM
  TGI: 23700 nM
[3]
  GI50: 1250 nM
  TGI: > 100000 nM
[4]
  GI50: 1020 nM
  TGI: > 100000 nM
[5]
  GI50: 471 nM
  TGI: > 100000 nM
[6]
  GI50: 333 nM
  TGI: > 33800 nM
[7]
  GI50: 1210 nM
  TGI: > 100000 nM
[8]
  GI50: 355 nM
  TGI: 24200 nM
[9]
  GI50: 9120 nM
  TGI: > 100000 nM
[10]
  GI50: 988 nM
  TGI: > 100000 nM
[11]
  GI50: 2530 nM
  TGI: 21300 nM
[12]
  GI50: 388 nM
  TGI: > 100000 nM
[13]
  GI50: 680 nM
  TGI: 44100 nM
[14]
  GI50: 468 nM
[15]
  GI50: 921 nM
  TGI: 10600 nM
[16]
  GI50: 1420 nM
  TGI: > 29900 nM
[17]
  GI50: 22100 nM
  TGI: > 100000 nM
[18]
  GI50: 385 nM
  TGI: > 36000 nM
[19]
  GI50: 727 nM
  TGI: 70000 nM
[20]
  GI50: 961 nM
  TGI: > 24600 nM
[21]
  GI50: 1340 nM
  TGI: > 100000 nM
[22]
  GI50: 67.6 nM
  TGI: 225 nM
[23]
  GI50: 322 nM
  TGI: 1470 nM
[24]
  GI50: 1550 nM
  TGI: > 49100 nM
[25]
  GI50: 1240 nM
  TGI: > 55200 nM
[26]
  GI50: 463 nM
  TGI: > 33500 nM
[27]
  GI50: 843 nM
  TGI: 13400 nM
[28]
  GI50: 1380 nM
  TGI: > 100000 nM
[29]
  GI50: 270 nM
  TGI: 995 nM
[30]
  GI50: 6660 nM
  TGI: > 100000 nM
[31]
  GI50: 289 nM
  TGI: > 61600 nM
[32]
  GI50: 286 nM
[33]
  GI50: 246 nM
  TGI: > 91400 nM
[34]
  GI50: 12900 nM
  TGI: > 83200 nM
[35]
  GI50: 21400 nM
  TGI: > 100000 nM
[36]
  GI50: 248 nM
  TGI: > 100000 nM
[37]
  GI50: 1270 nM
  TGI: > 100000 nM
[38]
  GI50: 2060 nM
  TGI: > 100000 nM
[39]
  GI50: 67.7 nM
  TGI: 5080 nM
[40]
  GI50: 134 nM
  TGI: 3850 nM
[41]
  GI50: 3730 nM
  TGI: > 100000 nM
[42]
  GI50: 381 nM
  TGI: 1110 nM
[43]
  GI50: 2220 nM
  TGI: > 54800 nM
[44]
  GI50: 1140 nM
  TGI: 17900 nM
[45]
  GI50: 433 nM
  TGI: 5680 nM
[46]
  GI50: 171 nM
  TGI: 729 nM
[47]
  GI50: 1620 nM
  TGI: > 100000 nM
[48]
  GI50: 460 nM
  TGI: > 100000 nM
[50]
  GI50: 13300 nM
  TGI: > 76900 nM
[51]
  GI50: 260 nM
  TGI: 4040 nM
[52]
  GI50: 2020 nM
  TGI: > 100000 nM
[53]
  GI50: 529 nM
  TGI: > 22500 nM
[54]
  GI50: 2510 nM
  TGI: > 100000 nM
[55]
  GI50: 1960 nM
  TGI: > 84600 nM
[56]
  GI50: 1180 nM
  TGI: > 82900 nM
[57]
  GI50: 628 nM
  TGI: 1710 nM
[58]
  GI50: 6850 nM
  TGI: > 60800 nM
